Our source for the Kd values is BindingDB's records for doi:10.1021/acs.jmedchem.0c00656 (2020).

A value given as a limit tells only on which side of the number the result lay.

The test addresses T1, Vitamin D3 receptor A (Danio rerio, UniProt Q9PTN2).
T1 sequence (Q9PTN2 whole entry): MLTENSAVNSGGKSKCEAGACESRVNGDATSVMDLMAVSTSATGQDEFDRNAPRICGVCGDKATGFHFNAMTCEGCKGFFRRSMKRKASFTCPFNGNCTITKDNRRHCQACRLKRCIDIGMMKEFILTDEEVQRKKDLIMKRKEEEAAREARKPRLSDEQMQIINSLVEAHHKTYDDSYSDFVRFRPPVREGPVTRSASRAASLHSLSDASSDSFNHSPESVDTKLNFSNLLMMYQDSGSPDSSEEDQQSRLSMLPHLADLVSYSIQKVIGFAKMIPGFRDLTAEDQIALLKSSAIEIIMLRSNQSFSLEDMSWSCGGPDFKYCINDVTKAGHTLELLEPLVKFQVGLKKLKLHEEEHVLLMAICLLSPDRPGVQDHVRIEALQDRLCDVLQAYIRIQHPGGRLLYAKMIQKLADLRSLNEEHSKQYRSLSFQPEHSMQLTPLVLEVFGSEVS
In words: Binding affinity to zebrafish VDR LBD assessed as Kd for fluorescein-labeled SRC1 NR2 peptide binding by micro-scale thermophoresis method.

In general, Kd refers to the equilibrium constant for the complex coming apart.

On to `C=C1/C(=C\C=C2/CCC[C@]3(C)[C@@H]([C@H](C)/C=C/[C@@H](O)C4(/C=C/C(=O)OCC)CC4)CC[C@@H]23)C[C@@H](O)C[C@@H]1O`, for which the Kd was above 30 µM.
